Columns and labels:
Experiment in all cases: KinaseProfiler panel
Assay type in all cases: biochemical
Details in all cases: activity remaining
Ret(h) = Ret(h) (Homo sapiens (Human), UniProt P07949); set-up: dose or concentration left out as unconfirmed
MAP4K5(h) = MAP4K5(h) (Homo sapiens (Human), UniProt Q9Y4K4); set-up: dose or concentration left out as unconfirmed
MAP4K3(h) = MAP4K3(h) (Homo sapiens (Human), UniProt Q8IVH8); set-up: dose or concentration left out as unconfirmed
CDK6/cyclinD3(h) = CDK6/cyclinD3(h) (Homo sapiens (Human), UniProt Q00534); set-up: dose or concentration left out as unconfirmed
Sequence of CDK6/cyclinD3(h) (Q00534 whole entry): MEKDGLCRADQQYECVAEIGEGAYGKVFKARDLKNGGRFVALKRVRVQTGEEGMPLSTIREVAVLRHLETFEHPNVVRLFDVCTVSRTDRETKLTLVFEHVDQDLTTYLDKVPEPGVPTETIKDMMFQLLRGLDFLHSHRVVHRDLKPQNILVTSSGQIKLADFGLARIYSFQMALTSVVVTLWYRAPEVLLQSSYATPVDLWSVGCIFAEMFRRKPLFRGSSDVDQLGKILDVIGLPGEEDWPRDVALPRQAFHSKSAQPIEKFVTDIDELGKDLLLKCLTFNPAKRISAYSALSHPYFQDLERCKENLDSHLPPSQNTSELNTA
Sequence of CDK6/cyclinD3(h) (P30281 whole entry partner): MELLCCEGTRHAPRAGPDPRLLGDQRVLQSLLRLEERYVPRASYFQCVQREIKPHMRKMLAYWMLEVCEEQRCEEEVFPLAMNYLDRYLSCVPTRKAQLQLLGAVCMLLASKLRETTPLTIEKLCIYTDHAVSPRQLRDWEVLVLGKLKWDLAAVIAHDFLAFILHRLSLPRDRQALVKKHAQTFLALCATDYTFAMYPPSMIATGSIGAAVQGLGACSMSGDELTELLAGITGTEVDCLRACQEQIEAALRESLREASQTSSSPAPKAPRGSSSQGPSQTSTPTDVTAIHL

PKBγ(h) = PKBγ(h) (Homo sapiens (Human), UniProt Q9Y243); set-up: dose or concentration left out as unconfirmed
PAK3(h) = PAK3(h) (Homo sapiens (Human), UniProt O75914); set-up: dose or concentration left out as unconfirmed
NEK1(h) = NEK1(h) (Homo sapiens (Human), UniProt Q96PY6); set-up: dose or concentration left out as unconfirmed
ALK1(h) = ALK1(h) (Homo sapiens (Human), UniProt P37023); set-up: dose or concentration left out as unconfirmed
Sequence of ALK1(h) (P37023 22-503): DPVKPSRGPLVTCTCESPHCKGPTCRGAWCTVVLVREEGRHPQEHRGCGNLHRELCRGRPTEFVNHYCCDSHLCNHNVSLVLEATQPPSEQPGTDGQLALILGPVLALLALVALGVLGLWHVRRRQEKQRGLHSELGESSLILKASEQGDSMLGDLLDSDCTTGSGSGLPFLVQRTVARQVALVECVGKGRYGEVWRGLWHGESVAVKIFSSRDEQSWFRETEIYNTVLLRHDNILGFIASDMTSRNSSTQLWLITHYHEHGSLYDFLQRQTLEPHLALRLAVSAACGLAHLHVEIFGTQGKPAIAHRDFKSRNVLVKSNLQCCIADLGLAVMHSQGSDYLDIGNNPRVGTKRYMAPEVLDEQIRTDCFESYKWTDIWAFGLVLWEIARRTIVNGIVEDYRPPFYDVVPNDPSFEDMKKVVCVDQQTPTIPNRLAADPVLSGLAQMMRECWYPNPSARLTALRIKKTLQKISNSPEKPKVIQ

ROCK-I(h) = ROCK-I(h) (Homo sapiens (Human), UniProt Q13464); set-up: dose or concentration left out as unconfirmed
LATS1(h) = LATS1(h) (Homo sapiens (Human), UniProt O95835); set-up: dose or concentration left out as unconfirmed
PDGFRβ(h) = PDGFRβ(h) (Homo sapiens (Human), UniProt P09619); set-up: dose or concentration left out as unconfirmed
PKCθ(h) = PKCθ(h) (Homo sapiens (Human), UniProt Q04759); set-up: dose or concentration left out as unconfirmed
ACTR2(h) = ACTR2(h) (Homo sapiens (Human), UniProt P27037); set-up: dose or concentration left out as unconfirmed
Sequence of ACTR2(h) (P27037 20-513): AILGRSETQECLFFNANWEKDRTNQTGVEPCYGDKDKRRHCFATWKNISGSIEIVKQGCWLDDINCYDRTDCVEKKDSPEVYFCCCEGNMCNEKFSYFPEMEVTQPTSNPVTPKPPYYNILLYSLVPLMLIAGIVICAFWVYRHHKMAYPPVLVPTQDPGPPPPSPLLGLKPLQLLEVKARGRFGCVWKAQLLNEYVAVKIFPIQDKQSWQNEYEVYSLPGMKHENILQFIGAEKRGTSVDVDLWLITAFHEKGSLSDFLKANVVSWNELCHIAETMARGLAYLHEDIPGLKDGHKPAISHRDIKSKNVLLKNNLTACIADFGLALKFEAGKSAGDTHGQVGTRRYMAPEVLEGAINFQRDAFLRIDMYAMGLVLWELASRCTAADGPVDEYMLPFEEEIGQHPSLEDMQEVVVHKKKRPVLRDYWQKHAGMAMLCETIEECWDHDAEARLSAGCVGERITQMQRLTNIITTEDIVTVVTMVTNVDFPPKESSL

PKBβ(h) = PKBβ(h) (Homo sapiens (Human), UniProt P31751); set-up: dose or concentration left out as unconfirmed
Fms(h) = Fms(h) (Homo sapiens (Human), UniProt P07333); set-up: dose or concentration left out as unconfirmed
Sequence of Fms(h) (P07333 20-972): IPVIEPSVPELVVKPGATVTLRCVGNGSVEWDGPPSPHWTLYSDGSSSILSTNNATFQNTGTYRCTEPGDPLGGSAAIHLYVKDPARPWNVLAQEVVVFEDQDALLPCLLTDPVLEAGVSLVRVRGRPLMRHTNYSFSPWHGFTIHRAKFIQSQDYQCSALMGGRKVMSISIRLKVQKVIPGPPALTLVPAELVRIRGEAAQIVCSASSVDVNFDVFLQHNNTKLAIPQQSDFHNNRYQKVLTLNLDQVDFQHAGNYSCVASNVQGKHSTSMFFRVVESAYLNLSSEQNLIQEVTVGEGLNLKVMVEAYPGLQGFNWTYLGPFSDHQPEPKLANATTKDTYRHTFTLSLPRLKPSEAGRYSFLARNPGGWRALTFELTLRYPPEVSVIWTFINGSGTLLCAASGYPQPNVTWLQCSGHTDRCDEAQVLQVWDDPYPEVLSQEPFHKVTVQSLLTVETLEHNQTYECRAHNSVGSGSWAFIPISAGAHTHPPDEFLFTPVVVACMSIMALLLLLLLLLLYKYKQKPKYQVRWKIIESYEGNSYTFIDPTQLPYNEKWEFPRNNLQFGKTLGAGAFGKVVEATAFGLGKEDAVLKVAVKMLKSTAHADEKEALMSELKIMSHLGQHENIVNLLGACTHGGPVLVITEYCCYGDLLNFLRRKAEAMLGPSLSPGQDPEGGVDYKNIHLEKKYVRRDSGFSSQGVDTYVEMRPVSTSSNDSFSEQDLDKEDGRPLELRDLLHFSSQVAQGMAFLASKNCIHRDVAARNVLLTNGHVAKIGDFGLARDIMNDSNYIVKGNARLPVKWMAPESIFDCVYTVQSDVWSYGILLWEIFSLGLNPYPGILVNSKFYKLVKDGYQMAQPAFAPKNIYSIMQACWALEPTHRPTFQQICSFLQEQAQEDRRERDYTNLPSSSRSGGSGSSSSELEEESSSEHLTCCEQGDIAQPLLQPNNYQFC

PIP4K2a(h) = PIP4K2a(h) (Homo sapiens (Human), UniProt P48426); set-up: dose or concentration left out as unconfirmed
GRK1(h) = GRK1(h) (Homo sapiens (Human), UniProt Q15835); set-up: dose or concentration left out as unconfirmed
NEK6(h) = NEK6(h) (Homo sapiens (Human), UniProt Q9HC98); set-up: dose or concentration left out as unconfirmed
Sequence of NEK6(h) (Q9HC98 whole entry): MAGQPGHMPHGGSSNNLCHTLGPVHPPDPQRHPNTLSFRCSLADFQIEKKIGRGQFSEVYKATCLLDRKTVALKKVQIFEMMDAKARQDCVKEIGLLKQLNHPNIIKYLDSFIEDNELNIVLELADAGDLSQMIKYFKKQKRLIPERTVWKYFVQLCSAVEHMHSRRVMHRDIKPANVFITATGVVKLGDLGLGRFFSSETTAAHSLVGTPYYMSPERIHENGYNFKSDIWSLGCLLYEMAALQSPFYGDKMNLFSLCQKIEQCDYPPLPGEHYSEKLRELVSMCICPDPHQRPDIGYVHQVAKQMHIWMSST

PDHK2(h) = PDHK2(h) (Homo sapiens (Human), UniProt Q15119); set-up: dose or concentration left out as unconfirmed
CaMKK2(h) = CaMKK2(h) (Homo sapiens (Human), UniProt Q96RR4); set-up: dose or concentration left out as unconfirmed
GCN2(h) = GCN2(h) (Homo sapiens (Human), UniProt Q9P2K8); set-up: dose or concentration left out as unconfirmed
NDR2(h) = NDR2(h) (Homo sapiens (Human), UniProt Q9Y2H1); set-up: dose or concentration left out as unconfirmed
LRRK2(h) = LRRK2(h) (Homo sapiens (Human), UniProt Q5S007); set-up: dose or concentration left out as unconfirmed
MYLK2(h) = MYLK2(h) (Homo sapiens (Human), UniProt Q9H1R3); set-up: dose or concentration left out as unconfirmed
MRCKγ(h) = MRCKγ(h) (Homo sapiens (Human), UniProt Q6DT37); set-up: dose or concentration left out as unconfirmed
Ros(h) = Ros(h) (Homo sapiens (Human), UniProt P08922); set-up: dose or concentration left out as unconfirmed
Syk(h) = Syk(h) (Homo sapiens (Human), UniProt P43405); set-up: dose or concentration left out as unconfirmed
PRK2(h) = PRK2(h) (Homo sapiens (Human), UniProt Q16513); set-up: dose or concentration left out as unconfirmed
GRK7(h) = GRK7(h) (Homo sapiens (Human), UniProt Q8WTQ7); set-up: dose or concentration left out as unconfirmed
Rse(h) = Rse(h) (Homo sapiens (Human), UniProt Q06418); set-up: dose or concentration left out as unconfirmed
BMPR2(h) = BMPR2(h) (Homo sapiens (Human), UniProt Q13873); set-up: dose or concentration left out as unconfirmed
DRAK1(h) = DRAK1(h) (Homo sapiens (Human), UniProt Q9UEE5)
JAK2(h) = JAK2(h) (Homo sapiens (Human), UniProt O60674); set-up: dose or concentration left out as unconfirmed

Sequence of MAP4K3(h) (Q8IVH8 whole entry): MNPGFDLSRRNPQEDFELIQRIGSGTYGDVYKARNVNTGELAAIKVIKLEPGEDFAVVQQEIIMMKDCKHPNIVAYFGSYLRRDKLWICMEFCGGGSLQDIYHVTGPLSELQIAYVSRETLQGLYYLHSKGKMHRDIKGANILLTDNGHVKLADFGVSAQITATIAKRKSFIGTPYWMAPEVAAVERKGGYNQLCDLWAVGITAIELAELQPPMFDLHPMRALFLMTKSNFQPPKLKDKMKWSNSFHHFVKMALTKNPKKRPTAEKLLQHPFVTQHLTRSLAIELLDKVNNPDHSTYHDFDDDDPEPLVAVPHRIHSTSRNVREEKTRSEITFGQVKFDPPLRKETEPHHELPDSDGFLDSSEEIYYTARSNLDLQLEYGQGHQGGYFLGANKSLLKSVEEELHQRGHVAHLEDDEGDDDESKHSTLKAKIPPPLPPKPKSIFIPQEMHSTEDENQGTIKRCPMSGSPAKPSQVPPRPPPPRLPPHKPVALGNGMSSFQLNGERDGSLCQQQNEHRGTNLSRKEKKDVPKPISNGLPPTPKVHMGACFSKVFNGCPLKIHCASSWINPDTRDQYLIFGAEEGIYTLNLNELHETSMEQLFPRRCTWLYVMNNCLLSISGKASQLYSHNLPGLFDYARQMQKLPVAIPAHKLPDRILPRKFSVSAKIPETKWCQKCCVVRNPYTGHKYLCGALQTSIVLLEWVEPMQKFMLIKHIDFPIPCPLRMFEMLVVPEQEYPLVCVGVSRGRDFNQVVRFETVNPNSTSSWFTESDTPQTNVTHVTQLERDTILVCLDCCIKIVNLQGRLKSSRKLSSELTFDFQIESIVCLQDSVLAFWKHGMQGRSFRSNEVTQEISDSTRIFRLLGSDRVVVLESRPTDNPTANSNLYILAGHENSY
Sequence of Ret(h) (P07949 29-1114): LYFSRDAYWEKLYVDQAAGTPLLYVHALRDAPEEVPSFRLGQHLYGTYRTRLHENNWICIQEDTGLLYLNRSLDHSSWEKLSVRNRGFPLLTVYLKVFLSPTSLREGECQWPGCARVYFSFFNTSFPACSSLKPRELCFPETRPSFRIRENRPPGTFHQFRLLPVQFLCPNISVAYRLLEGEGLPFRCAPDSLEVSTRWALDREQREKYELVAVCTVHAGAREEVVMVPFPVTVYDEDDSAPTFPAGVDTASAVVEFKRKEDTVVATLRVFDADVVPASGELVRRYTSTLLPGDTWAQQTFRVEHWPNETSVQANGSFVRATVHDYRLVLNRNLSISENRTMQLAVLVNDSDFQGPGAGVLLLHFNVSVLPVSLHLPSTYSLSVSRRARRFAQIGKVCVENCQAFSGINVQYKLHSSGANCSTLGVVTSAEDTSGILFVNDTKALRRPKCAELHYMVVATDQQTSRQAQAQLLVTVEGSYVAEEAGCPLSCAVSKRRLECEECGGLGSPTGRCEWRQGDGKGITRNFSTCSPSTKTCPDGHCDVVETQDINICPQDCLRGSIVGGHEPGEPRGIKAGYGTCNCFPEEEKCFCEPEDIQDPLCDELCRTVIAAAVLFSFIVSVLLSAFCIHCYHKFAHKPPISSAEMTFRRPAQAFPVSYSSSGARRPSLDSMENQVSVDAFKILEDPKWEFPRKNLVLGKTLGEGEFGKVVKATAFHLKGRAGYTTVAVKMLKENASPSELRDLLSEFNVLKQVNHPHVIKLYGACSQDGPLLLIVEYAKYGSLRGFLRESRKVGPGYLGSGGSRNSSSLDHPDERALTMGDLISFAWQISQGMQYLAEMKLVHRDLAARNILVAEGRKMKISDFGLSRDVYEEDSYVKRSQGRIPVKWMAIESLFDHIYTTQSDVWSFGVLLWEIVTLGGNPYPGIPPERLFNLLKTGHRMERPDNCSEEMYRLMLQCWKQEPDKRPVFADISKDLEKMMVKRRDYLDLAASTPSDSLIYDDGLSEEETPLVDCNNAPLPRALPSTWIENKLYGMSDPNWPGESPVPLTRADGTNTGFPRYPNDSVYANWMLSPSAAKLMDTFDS

Cc1cc2c(-c3ccc(NC(=O)[C@H](N)CC(C)(C)C)cc3C)ccnc2[nH]1 [Compound F-90, (2R)-2-Amino-4,4-dimethyl-N-[3-methyl-4-(2-methyl-1H-pyrrolo[2,3-b]pyridin-4-yl)phenyl]pentanamide]
% Activity (Ret(h)): 97%
% Activity (MAP4K5(h)): 92%
% Activity (MAP4K3(h)): 109%
% Activity (CDK6/cyclinD3(h)): 90%
% Activity (PKBγ(h)): 101%
% Activity (PAK3(h)): 89%
% Activity (NEK1(h)): 94%
% Activity (ALK1(h)): 94%
% Activity (ROCK-I(h)): 96%
% Activity (LATS1(h)): 90%
% Activity (PDGFRβ(h)): 105%
% Activity (PKCθ(h)): 103%
% Activity (ACTR2(h)): 96%
% Activity (PKBβ(h)): 109%
% Activity (Fms(h)): 115%
% Activity (PIP4K2a(h)): 100%
% Activity (GRK1(h)): 86%
% Activity (NEK6(h)): 86%
% Activity (PDHK2(h)): 87%
% Activity (CaMKK2(h)): 96%
% Activity (GCN2(h)): 101%
% Activity (NDR2(h)): 107%
% Activity (LRRK2(h)): 100%
% Activity (MYLK2(h)): 76%
% Activity (MRCKγ(h)): 98%
% Activity (Ros(h)): 97%
% Activity (Syk(h)): 66%
% Activity (PRK2(h)): 92%
% Activity (GRK7(h)): 98%
% Activity (Rse(h)): 129%
% Activity (BMPR2(h)): 85%
% Activity (DRAK1(h)): 80%
% Activity (JAK2(h)): 104%

From patent publication US20250243196A1, “CITRON KINASE INHIBITORS” (The Cleveland Clinic Foundation, priority 2021, published 2025)
